Measurements as given in PubChem BioAssay (NCI).
Values joined by “and” are separate entries in the source; they are usually repeats but may differ in a detail not shown here. Identical values can stand only once.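 How tested: cells in 96-well plates exposed to compound for 48 hours at five concentrations. The concentration for 50% growth inhibition is given as GI50. TGI marks complete inhibition of growth.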

Tests used:
Assay in all cases: NCI-60 cell line screen, 48 h
[1] = tested on: SF-268 CNS
[2] = tested on: U251 CNS
[3] = tested on: NCI-H23 lung
[4] = tested on: RXF 393 renal
[5] = tested on: OVCAR-8 ovarian
[6] = tested on: CCRF-CEM leukemia
[7] = tested on: OVCAR-5 ovarian
[8] = tested on: SN12C renal
[9] = tested on: SR leukemia
[10] = tested on: SF-295 CNS

For `COC(=O)[C@H](Cc1ccccc1)NNC(=O)c1csc([C@@H](C[C@H](C(C)C)N(C)C(=O)[C@@H](NC(=O)[C@H]2CCCCN2C)C2CC2)OC(C)=O)n1`, the TGI [1] was 25 µM and > 100 µM, the TGI [2] was 25 µM and > 100 µM and the TGI [3] was 25 µM and > 100 µM. The GI50 [4] was 0.0025 µM, the TGI [4] was 25 µM and the TGI [5] was 25 µM and > 100 µM. The GI50 [6] was 0.00377 µM and 0.0025 µM and 0.0213 µM, the TGI [6] was 25 µM and > 100 µM and the TGI [7] was 25 µM and > 100 µM. The TGI [8] was 25 µM and > 100 µM, the GI50 [9] was 0.00139 µM and 0.0025 µM and the TGI [9] was 25 µM and > 100 µM. The TGI [10] was 25 µM and > 100 µM.

With `COc1ccc(NC(=S)C#N)cc1` the TGI [1] was over 100 µM, the TGI [2] was over 100 µM and the TGI [3] was over 100 µM. It also gave a TGI [4] of over 100 µM, a TGI [5] of over 100 µM and a TGI [6] of over 100 µM. For the same compound, the TGI [7] was over 100 µM, the TGI [8] was over 100 µM and the TGI [9] was over 100 µM. It also gave a TGI [10] of over 100 µM.

Compound `CCC(CC)c1cc(N[C@H]2CC[C@H](N)C2)n2nccc2n1` has a GI50 [1] of 2.44 µM, a TGI [1] of 13.9 µM and a GI50 [2] of 0.858 µM. The TGI [2] was over 100 µM, the GI50 [3] was 2.2 µM and the TGI [3] was 8.29 µM. The GI50 [4] was 0.632 µM, the TGI [4] was 2.36 µM and the GI50 [5] was 2.77 µM. The TGI [5] was over 100 µM, the GI50 [6] was 1.08 µM and the TGI [6] was over 100 µM. The GI50 [7] was 0.533 µM, the TGI [7] was over 100 µM and the GI50 [8] was 0.691 µM. For the same compound, the TGI [8] was over 100 µM, the GI50 [9] was 0.332 µM and the TGI [9] was over 100 µM. It also gave a GI50 [10] of 1.83 µM and a TGI [10] of over 100 µM.

`COc1ccc(C2CC(c3ccccc3)=NN2C(=O)c2cc(OC)c(OC)c(OC)c2)cc1O` (stereo not drawn) was tested, and the GI50 [1] was 0.902 µM, the TGI [1] was over 39.8 µM and the GI50 [2] was 0.383 µM. For the same compound, the TGI [2] was 13.8 µM, the GI50 [3] was 0.743 µM and the TGI [3] was over 65.8 µM. The GI50 [4] was 0.317 µM, the TGI [4] was 0.84 µM and the GI50 [5] was 0.659 µM. The TGI [5] was over 76.5 µM, the GI50 [6] was 0.473 µM and the TGI [6] was over 31.9 µM. The GI50 [7] was 8.43 µM, the TGI [7] was over 65.5 µM and the GI50 [8] was 0.766 µM. For the same compound, the TGI [8] was 34.4 µM, the GI50 [9] was 0.302 µM and the TGI [9] was 5.85 µM. It also gave a GI50 [10] of 0.366 µM and a TGI [10] of over 38.5 µM.

`CCNC(=O)Oc1ccc(/C(=C(\C)c2ccc(Cl)cc2)c2ccc(OCCN(CC)CC)cc2)cc1` showed a GI50 [1] of 5.99 µM, a TGI [1] of 21 µM and a GI50 [2] of 4.26 µM. The TGI [2] was 13.5 µM, the GI50 [3] was 7.92 µM and the TGI [3] was 22.1 µM. It also gave a GI50 [4] of 2.35 µM, a TGI [4] of 9.84 µM and a GI50 [5] of 9.25 µM. For the same compound, the TGI [5] was 29.1 µM, the GI50 [6] was 3.38 µM and the TGI [6] was 12.2 µM. The GI50 [7] was 10.3 µM, the TGI [7] was 23.1 µM and the GI50 [8] was 4.42 µM. For the same compound, the TGI [8] was 16.1 µM, the GI50 [9] was 2.55 µM and the TGI [9] was 10.7 µM. The GI50 [10] was 1.85 µM and the TGI [10] was 4.12 µM.
